≈ marks a conversion by molar mass, not a printed value. Like-named read-outs stand apart in the source and are kept apart here.
Tests used:
C. albicans CCM 8215 = test: Minimum inhibitory concentration (MIC) testing, serial binary dilution in 96-well plates; assay type: cell-based; conditions: Candida albicans, CCM8215; 24 h in the dark; n.d. = activity not detected; highest tested concentration 66.7 μM
Description: (§1) Minimum inhibitory concentration (MIC) testing of the extracts was performed using 96-well polypropylene plates against four different microorganisms: the Gram-positive bacterium K. rhizophila ATCC 9341, the Gram-negative bacterium E. coli ATCC 3988, and the yeasts C. albicans CCM 8215 and C. neoformans CCF 1081.
(§2) A working inoculum of each microorganism was prepared as follows: for E. coli and K. rhizophila, the inoculum was grown in LB medium (LB Broth, 25 g/L, incubated at 36 °C); for C. albicans and C. neoformans, YM6.3 medium (maltose extract 10 g, glucose 4 g, yeast extract 4 g per 1 L distilled water, incubated at 24 °C) with a cell concentration of approximately 5 × 10^5 cells/mL for all microorganisms was used.
(§3) Chloramphenicol served as a positive control for bacteria, while cycloheximide was used as a positive control for fungi. The gradient of the test substances was established by serial binary dilution across the wells. The MIC was determined by identifying the lowest concentration at which no live microorganisms were present. Cultivation was performed in the dark for 24 h.

C. neoformans CCF 1081 = test: as above; assay type: cell-based; conditions: Cryptococcus neoformans, CCF1081; 24 h in the dark; n.d. = activity not detected; highest tested concentration 66.7 μM
Description: as §1, §2, §3

E. coli ATCC 3988 = test: as above; assay type: cell-based; conditions: Escherichia coli, ATCC3988; 24 h in the dark; lowest concentration with no live microorganisms
Description: as §1, §2, §3

K. rhizophila ATCC 9341 = test: as above; assay type: cell-based; conditions: Kocuria rhizophila, ATCC9341; 24 h in the dark; lowest concentration with no live microorganisms
Description: as §1, §2, §3

[1] = system: Jurkat T-lymphocyte cell line; test: Cytotoxicity, Hoechst 33258 staining and flow cytometry (FACS LSRII); assay type: cell-based; conditions: 24 h incubation, flow cytometry, read-out: EC50 ± SEM Jurkat
Description: To evaluate the cytotoxicity of the isolated compounds, the immortalized T-lymphocyte cell line Jurkat was cultured in 96-well polypropylene U-bottom plates at a density of approximately 2 × 10^5 cells per well in RPMI1640 medium, with a total volume of 300 μL per well. Cells cultured in RPMI1640 medium alone and in RPMI1640 medium with DMSO were used as negative controls. After 24 h of incubation with the isolated compounds, dissolved in 10 mM DMSO, the cells were washed with PBS solution containing 0.02% gelatin and 0.01% sodium azide. Following this, the cells were stained with the fluorescent dye Hoechst 33258 and analyzed by flow cytometry using a FACS LSRII instrument (BD Biosciences, San Jose, USA) and FlowJo 10 software (Tree Star, Ashland, USA). Initial assays were conducted at concentrations of 5, 25, 50, 100, and 125 μM, with subsequent measurements at concentrations adjusted based on the results of the initial assays, each performed in triplicate. EC50 values were determined using Quest Graph software and the dose–response four parameters regression model. The EC50 values were determined from three independent experiments.

T. b. evansi AnTat 3/3 = test: Anti-trypanosomal activity, resazurin (AB assay), bloodstream form; assay type: cell-based, T. brucei evansi; conditions: Trypanosoma brucei, 72 h, axenic, 48 h + 24 h resazurin
Description: The bloodstream forms of T. b. gambiense LiTat 1.3, T. b. brucei 427, and T. b. evansi AnTat 3/3 were grown in HMI-11 medium pH 7.3 supplemented with 36 mM sodium bicarbonate, 100 U/mL penicillin/streptomycin, and 10% fetal bovine serum at 37 °C and 5% CO2. The bloodstream form of Trypanosoma congolense IL3000 (generous gift from Liam Morrison) was cultured in TcBSF-1 medium pH 7.3 supplemented with 26 mM sodium bicarbonate, 25 mM HEPES, 5.5 mM glucose, 1 mM sodium pyruvate, 0.04 mM adenosine, 0.1 mM hypoxanthine, 0.02 mM thymidine, 0.02 mM bathocuproine, 2 mM L-glutamine, 0.2 mM 2-mercaptoethanol, 100 U/ml penicillin/streptomycin, and 20% goat serum New Zealand origin (Gibco) at 34 °C, 5% CO2. The assay for anti-trypanosomal activity was performed using the resazurin sodium salt dye (AB Assay) according to the published protocol in a 96-well plate format. Parasites at a number of 5 × 10^3 per well (T. b. brucei and T. b. gambiense) or 1 × 10^4 per well (T. b. evansi) were incubated with different drug concentrations (2-fold serial dilutions) in a volume of 200 μL of the medium. Medium with 1% DMSO (the highest concentration of the solvent used in the assay) was used to confirm no effect of the solvent on the cell growth. The plates were incubated for 48 h at the appropriate temperature. Then, 20 μL of resazurin sodium salt solution (0.125 mg/mL in 1× PBS, pH 7. 4) was added to each well, and the cells were incubated for another 24 h under the same conditions. The fluorescence signal was quantified using a Tecan Infinite M200 plate reader at excitation and emission wavelengths of 560 and 590 nm, respectively. The EC50 values were calculated using GraphPad Prism 9.5.1 by nonlinear regression with a variable slope. Each EC50 value is the mean ± standard error of the mean of three separate experiments performed in duplicate.

| Compound | MIC (C. albicans CCM 8215) | MIC (C. neoformans CCF 1081) | MIC (E. coli ATCC 3988) | MIC (K. rhizophila ATCC 9341) | EC50 ([1]; Homo sapiens, Jurkat, 24 h) | EC50 (T. b. evansi AnTat 3/3) | EC50 [1] |
| --- | --- | --- | --- | --- | --- | --- | --- |
| COc1cc(O)c2c(c1)C(=O)C1=C(C[C@@H](OC(C)=O)[C@@H](C)O1)C2=O [Compound 7, (2R,3R)-6-hydroxy-8-methoxy-2-methyl-5,10-dioxo-3,4,5,10-tetrahydro-2H-benzo[g]chromen-3-yl acetate] | 33.3 µM | 33.3 µM | 4.2 µM | 4.2 µM | 93200 ± 5900 nM | 700 nM | – |
| COc1cc(O)c2c(c1)C(=O)C1=C(C2=O)[C@@H](O)[C@@H](OC(C)=O)[C@@H](C)O1 [Compound 5, (2R,3R,4R)-4,6-dihydroxy-8-methoxy-2-methyl-5,10-dioxo-3,4,5,10-tetrahydro-2H-benzo[g]chromen-3-yl acetate] | 66.7 µM | 33.3 µM | 1 µM | 2.1 µM | ~1500 nM | 40 nM | 1600 ± 100 nM |
| COc1cc(O)c2c(c1)C(=O)C1=C(C2=O)[C@@H](OC(C)=O)[C@@H](O)[C@@H](C)O1 [Compound 1, (2R,3S,4R)-3,6-dihydroxy-8-methoxy-2-methyl-5,10-dioxo-3,4,5,10-tetrahydro-2H-benzo[g]chromen-4-yl acetate] | 33.3 µM | 33.3 µM | 1 µM | 1 µM | ~1500 nM | 30 nM | 1700 ± 100 nM |
| COc1cc(O)c2c(c1)C(=O)C1=C(C2=O)[C@H](O)[C@@H](O)[C@@H](C)O1 (relative stereo) [Compound 3, (2R,3R,4S)-3,4,6-trihydroxy-8-methoxy-2-methyl-3,4-dihydro-2H-benzo[g]chromene-5,10-dione] | > 66.7 µM | > 66.7 µM | 2.1 µM (≈ 0.643 µg/mL) | 8.3 µM (≈ 2.54 µg/mL) | 16500 ± 1300 nM | 4200 nM | – |
